Source: article PMC3914206

Tests used:
Type in all cases: binding
[1] = molecular target: T1, panel of 442 kinases (Homo sapiens, UniProt Q9HAZ1); conditions: Compound Concentration 10 µM
T1 construct: purchased KINOMEscan
Text: (§1) We assessed the selectivity of members of this scaffold using the KINOMEscan methodology across a near comprehensive panel of 442 kinases [[18,27]].

[2] = molecular target: T2, panel of 442 kinases (Homo sapiens, UniProt P23443); conditions: kinase S6K1; compound concentration 10 µM
T2 construct: purchased KINOMEscan
Text: as §1

[3] = molecular target: T3, panel of 442 kinases (Homo sapiens, UniProt Q13131); conditions: Compound Concentration 10 µM
T3 construct: purchased KINOMEscan
Text: as §1

T2 sequence (P23443 whole entry): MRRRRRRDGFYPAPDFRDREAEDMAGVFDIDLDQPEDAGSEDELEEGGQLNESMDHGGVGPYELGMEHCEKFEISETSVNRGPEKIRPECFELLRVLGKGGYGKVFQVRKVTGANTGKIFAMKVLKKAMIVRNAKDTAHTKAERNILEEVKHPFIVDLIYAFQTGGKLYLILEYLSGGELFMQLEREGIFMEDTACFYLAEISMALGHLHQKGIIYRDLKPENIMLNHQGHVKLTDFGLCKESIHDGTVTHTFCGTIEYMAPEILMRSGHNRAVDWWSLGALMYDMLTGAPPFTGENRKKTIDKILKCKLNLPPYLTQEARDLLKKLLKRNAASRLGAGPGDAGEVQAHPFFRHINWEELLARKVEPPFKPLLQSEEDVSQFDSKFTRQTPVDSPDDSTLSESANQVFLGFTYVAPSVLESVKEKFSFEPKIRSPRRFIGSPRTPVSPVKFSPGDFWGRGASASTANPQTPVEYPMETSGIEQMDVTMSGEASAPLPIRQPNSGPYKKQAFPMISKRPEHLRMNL
T1 sequence (Q9HAZ1 whole entry): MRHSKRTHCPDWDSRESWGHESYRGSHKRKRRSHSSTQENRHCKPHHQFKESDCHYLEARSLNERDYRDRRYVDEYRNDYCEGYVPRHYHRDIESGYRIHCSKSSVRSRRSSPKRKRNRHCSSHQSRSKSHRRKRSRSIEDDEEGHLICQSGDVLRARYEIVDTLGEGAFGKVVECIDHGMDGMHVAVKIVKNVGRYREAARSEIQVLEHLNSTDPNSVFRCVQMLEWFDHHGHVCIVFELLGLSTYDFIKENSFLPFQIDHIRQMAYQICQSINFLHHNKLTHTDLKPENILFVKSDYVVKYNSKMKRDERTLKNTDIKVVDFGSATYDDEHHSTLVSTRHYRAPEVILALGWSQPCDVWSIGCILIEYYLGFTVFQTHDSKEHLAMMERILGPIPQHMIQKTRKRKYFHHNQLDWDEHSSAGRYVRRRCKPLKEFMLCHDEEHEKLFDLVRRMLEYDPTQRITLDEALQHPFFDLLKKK
T3 sequence (Q13131 whole entry): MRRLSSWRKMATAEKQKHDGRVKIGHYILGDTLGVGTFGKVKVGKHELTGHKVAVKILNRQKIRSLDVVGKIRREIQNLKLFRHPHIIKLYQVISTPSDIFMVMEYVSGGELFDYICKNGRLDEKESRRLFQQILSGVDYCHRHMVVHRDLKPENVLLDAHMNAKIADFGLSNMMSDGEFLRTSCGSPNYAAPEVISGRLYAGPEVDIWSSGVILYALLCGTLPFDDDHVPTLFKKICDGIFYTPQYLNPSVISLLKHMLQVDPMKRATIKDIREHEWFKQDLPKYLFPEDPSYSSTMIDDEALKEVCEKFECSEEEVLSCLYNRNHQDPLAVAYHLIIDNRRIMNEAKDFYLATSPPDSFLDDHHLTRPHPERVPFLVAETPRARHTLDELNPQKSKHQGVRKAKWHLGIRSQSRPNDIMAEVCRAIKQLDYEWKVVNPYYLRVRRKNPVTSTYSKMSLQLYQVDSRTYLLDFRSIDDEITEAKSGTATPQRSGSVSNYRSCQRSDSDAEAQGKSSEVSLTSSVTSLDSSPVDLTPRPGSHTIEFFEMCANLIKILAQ

Compound | KINOMEscan: CLK4 [1] | % Ctrl, S6K1 [2] | KINOMEscan: AMPK-alpha1 [3]
COc1cc(C(=O)N2CCC(N3CCN(C)CC3)CC2)ccc1Nc1ncc2c(n1)N1CCc3cccc(c31)C(=O)N2C [Compound 24] | 11 | 100 % Ctrl | 
CCOc1cc(C(=O)N2CCC(N3CCN(C)CC3)CC2)ccc1Nc1ncc2c(n1)N(C1CCCC1)c1ccccc1C(=O)N2C [Compound 26] | 100 | 100 % Ctrl | 100
COc1cc(C(=O)N2CCC(N3CCN(C)CC3)CC2)ccc1Nc1ncc2c(n1)N(C1CCCC1)c1ccccc1C(=O)N2C [Compound 25, 11-cyclopentyl-2-((2-methoxy-4-(4-(4-methylpiperazin-1-yl)piperidine-1-carbonyl)phenyl)amino)-5-methyl-5H-benzo[e]pyrimido[5,4-b][1,4]diazepin-6(11H)-one] | 100 | 100 % Ctrl | 48
COc1cc(C(=O)N2CCC(N3CCN(C)CC3)CC2)ccc1Nc1ncc2c(n1)N(C)c1ccccc1C(=O)N2C [15 (LRRK2-IN-1)] | 54 | 100 % Ctrl | 51
